Results reported in US11673881B2, “Isoquinolin-3-yl carboxamides and preparation and use thereof” (BioSplice Therapeutics, Inc., priority 2016, dated 2023).

Experiments:
[1] = tested on: Wnt activity, Sp5-Luc reporter in SW480 colon carcinoma cells; test: Screening assay for Wnt activity (Sp5-Luc reporter gene assay); format: cell-based, human
Description: The screening assay for Wnt activity is described as follows.
Following incubation, 15 μl of BriteLite Plus luminescence reagent (Perkin Elmer) was added to each well of the 384-well assay plates. The plates were placed on an orbital shaker for 2 min and then luminescence was quantified using the Envision (Perkin Elmer) plate reader.

[2] = tested on: Tau phosphorylation at Ser396 (pSer396); test: Tau phosphorylation assay (pSer396) in SH-SY5Y cells; format: cell-based, human; conditions: overnight (16-18 h) exposure, pSer396 Tau ELISA
Description: Two days before treatment, cells were seeded onto 96 well plates at 5×10^4 cells/well.
Wells were visually checked for cell death or change in morphology and supernatants were tested for cytotoxicity by measurement of lactate dehydrogenase release (LDH, CytoToxOne kit, Promega) if necessary.
Cells were lysed with RIPA buffer complemented with phosphatase and protease inhibitors then lysates were spun down at 12,000 g for 10 min to remove any cellular debris. Lysates are then either directly tested for pSer396 by ELISA (Life Technology, Kit KHB7031) or loaded on NuPage Bis-Tris gels for western blot analysis. Colorimetric detection of ELISA signal is performed by Cytation3 plate reader (Biotek) and the chemiluminescence signal for HRP-linked antibodies used in western blotting is detected using a Carestream Image Station. The same pSer396 antibody is used for detection of pTau in both assays.

IL-6 = IL-6 inhibition in LPS-stimulated human peripheral blood mononuclear cells (HTRF); format: cell-based; conditions: LPS-stimulated huPBMCs, IL-6 HTRF
Description: After 22 hour incubation, a mixture of anti-IL6 XL665 and anti-IL-6 Cryptate diluted in reconstitution buffer (Catalog #62IL6PEC, Cisbio Inc., Bedford, Mass.) was added to each well. […] All samples were processed in duplicate. […] EC50 was determined using software generated by Dotmatics Limited (Windhill Bishops Stortford Herts, UK) using the Levenberg-Marquardt 4 parameter fitting procedure with finite different gradients.

[3] = tested on: LL29 cells (αSMA positive cells); test: Fibrosis assay: TGF-β1 treated primary human fibroblasts from IPF patients, αSMA staining; format: cell-based; conditions: LL29 cells treated with TGF-β1, 4 days
[4] = tested on: SW480 colon carcinoma cells; test: Cell viability assay (CellTiter-Glo); format: cell-based, human; conditions: four days incubation

With `Cn1cc(-c2ccc3cnc(NC(=O)C(C)(C)F)cc3c2)nn1` [Compound 312, 2-Fluoro-2-methyl-N-(6-(1-methyl-1H-1,2,3-triazol-4-yl)isoquinolin-3-yl) propanamide] the “percent inhibition at 10 μM” value ([1]; given for EC50 of >10 μM) was 23.8%, the EC50 ([1]; incubated 36 to 48 hours) was greater than 10 µM and the EC50 [2] was 762 nM. For the same compound, the “percent inhibition at 10 μM (given where EC50 >10 μM)” value (IL-6; 10 μM) was 3.9%, the EC50 (IL-6) was greater than 10 µM and the “percent inhibition at 10 μM (given where EC50 >10 μM)” value ([3]; 10 μM) was 36.5%. The EC50 ([3]; αSMA staining) was greater than 10 µM and the EC50 [4] was greater than 10 µM.
